# pEC50, pIC50: −log10 of the molar value. “Also recorded” adds a separate entry of the source.
# Columns and labels:
# [1] = biological target: neurotensin receptors; settings: rat brain receptors; read-out: IC50, inhibition of {Trp11}-NT binding; cited from earlier work
# [2] = humans; cited from earlier work
# [3] = biological target: T1, VIPR2 (VPAC2) (Homo sapiens, UniProt P41587); experiment: cAMP Hunter cell line functional assay, agonist mode (DiscoveRx HitHunter cAMP XS+); format: cell-based; settings: FIG. 3
# T1 construct: host or cells: cAMP Hunter cell line (CHO-K1 is named only in the prophetic b955)
# T1 sequence (P41587 24-438): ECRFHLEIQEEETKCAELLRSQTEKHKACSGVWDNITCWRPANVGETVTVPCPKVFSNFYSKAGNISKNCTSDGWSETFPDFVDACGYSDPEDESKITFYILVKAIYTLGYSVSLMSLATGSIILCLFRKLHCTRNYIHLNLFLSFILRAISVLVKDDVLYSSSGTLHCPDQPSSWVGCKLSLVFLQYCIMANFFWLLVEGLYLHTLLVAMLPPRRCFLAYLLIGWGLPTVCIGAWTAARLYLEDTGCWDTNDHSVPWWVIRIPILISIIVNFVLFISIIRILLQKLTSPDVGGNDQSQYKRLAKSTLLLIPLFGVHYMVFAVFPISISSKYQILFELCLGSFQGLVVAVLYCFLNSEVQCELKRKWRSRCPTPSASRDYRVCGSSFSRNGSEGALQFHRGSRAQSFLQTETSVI
# Experimental: (§1) Once it was established that the cells were healthy and growing normally, cells were passaged from flasks using cell dissociation reagent buffer and seeded into white walled clear bottom 384-well microplates for compound profiling. For profiling, cells were seeded at a density of 10,000 cells per well in a total volume of 20 μL and were allowed to adhere and recover overnight prior to compound addition. cAMP modulation was determined using the DiscoveRx HitHunter cAMP XS+ assay.
# (§2) For profiling compound in agonist mode, the cells were incubated in the presence of compound at 37° C. for 30 minutes. […] After appropriate compound incubation, assay signal was generated through incubation with DiscoverX lysis cocktail according to the manufacturers standard protocol. Dose curves were plotted using GraphPad Prism or Activity Base. Percentage activity is calculated using the following formula:
# (§3) % Activity=100%×(mean RLU of test sample−mean RLU of vehicle control)/(mean RLU of MAX control−mean RLU of vehicle control).
# [4] = biological target: T2, VIPR1 (VPAC1) (Homo sapiens, UniProt P32241); experiment: as above; format: cell-based; settings: for Mean RLU: cAMP, VIPR1 cells
# T2 sequence (P32241 31-457): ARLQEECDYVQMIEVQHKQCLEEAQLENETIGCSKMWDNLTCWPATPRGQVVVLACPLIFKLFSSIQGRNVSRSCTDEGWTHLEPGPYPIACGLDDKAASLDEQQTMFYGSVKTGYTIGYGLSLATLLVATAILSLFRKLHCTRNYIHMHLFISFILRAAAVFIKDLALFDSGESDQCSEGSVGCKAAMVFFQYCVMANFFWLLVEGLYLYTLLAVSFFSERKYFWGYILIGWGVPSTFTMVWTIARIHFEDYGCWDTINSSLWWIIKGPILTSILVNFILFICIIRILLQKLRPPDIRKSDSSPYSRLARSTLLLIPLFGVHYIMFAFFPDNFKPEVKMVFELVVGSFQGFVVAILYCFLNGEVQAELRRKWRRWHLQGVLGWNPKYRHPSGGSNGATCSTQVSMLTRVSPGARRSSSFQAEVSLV
# Experimental: as §1, §2, §3
# [5] = biological target: amylin receptor; settings: read-out: IC50, amylin receptor antagonist; cited from earlier work
# [6] = system: calcitonin receptors; settings: amylin receptor vs calcitonin receptors; cited from earlier work
# [7] = biological target: CGRP receptors (Homo sapiens, UniProt O60894+Q16602); settings: amylin receptor vs CGRP receptors; cited from earlier work
# Chain of CGRP receptors (Q16602 23-461): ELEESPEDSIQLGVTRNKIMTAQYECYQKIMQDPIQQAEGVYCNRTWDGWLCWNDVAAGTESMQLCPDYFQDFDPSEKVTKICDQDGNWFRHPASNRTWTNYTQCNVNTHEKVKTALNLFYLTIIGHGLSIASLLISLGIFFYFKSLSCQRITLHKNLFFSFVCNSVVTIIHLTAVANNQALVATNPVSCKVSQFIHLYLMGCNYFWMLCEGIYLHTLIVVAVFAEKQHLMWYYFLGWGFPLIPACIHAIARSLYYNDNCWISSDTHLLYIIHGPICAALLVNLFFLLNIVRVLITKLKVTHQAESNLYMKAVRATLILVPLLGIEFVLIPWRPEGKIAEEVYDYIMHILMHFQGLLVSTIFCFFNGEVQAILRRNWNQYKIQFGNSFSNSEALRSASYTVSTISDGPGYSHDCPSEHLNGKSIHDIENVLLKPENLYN
# Chain of CGRP receptors (O60894 27-148 partner): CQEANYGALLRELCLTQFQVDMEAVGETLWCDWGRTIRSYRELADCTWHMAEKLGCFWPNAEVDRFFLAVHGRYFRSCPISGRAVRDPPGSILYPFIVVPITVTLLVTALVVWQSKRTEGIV
substance,measurement,setting,value
Neuromedin N,pIC50,[1],7.78
"GLP-1: glucagon-like peptide-1, a product of the proglucagon gene, gut hormone (HDEFERHAEGTFTSDVSSYLEGQAAQGFIAWLVKGRG)",plasma half-life,[2],2 min
HSDAVFTDNYXRLZKQLXVKZYLNX ILN [Compound 8],activation of / interaction with VIPR2 (in words),[3],not activate; also recorded: does not interact substantially
same,Mean RLU,[4]; 1.03E−08 M,13700.0 RLU
same,Mean RLU,[4]; 1.03E−09 M,13500.0 RLU
same,Mean RLU,[4]; 1.03E−10 M,9960.0 RLU
same,Mean RLU,[4]; 1.03E−11 M,10500.0 RLU
same,Mean RLU,[4]; 1.03E−12 M,10340.0 RLU
same,Mean RLU,[4]; 5.03E−07 M,112320.0 RLU
same,Mean RLU,[4]; 5.03E−08 M,96460.0 RLU
same,Mean RLU,[4]; 5.03E−09 M,13200.0 RLU
same,Mean RLU,[4]; 5.03E−10 M,9520.0 RLU
same,activation of VIPR1 (in words),[4]; FIG. 3,fully activate
same,pEC50,"[4]; cAMP readout, 37° C. for 30 minutes, read-out: EC50 (peptide concentration for 50% VIPR1 activation)",7.55
AC 187,pIC50,[5],9.32
same,selectivity over calcitonin receptors,[6],38 fold
same,selectivity over CGRP receptors,[7],400 fold

# Reference: US20130096050A1 (Longevity Biotech, Inc., priority 2010, published 2013)
